Test results: a melting point compilation (Tetko et al.; mined from patent text by program, amines drawn as free bases though some values may be those of a salt)

Which melting point does the source give for `CC(CO)c1ccc2cc(OCc3ccc4ccccc4n3)ccc2c1` (stereo unspecified) here?
Its melting point is 129 to 131 °C.

For `Cc1nnc(C(F)(F)F)n1-c1ccccc1`, which melting point is on record?
Its melting point is 118 °C.

Which melting point does the source give for `Cc1cc(C)nc(NC(=O)NS(=O)(=O)c2ccsc2C(=O)O)n1` here?
Its melting point is 127 °C.

For `O=C1c2ccccc2C(=O)N1OC1CCCC1`, which melting point is on record?
The melting point was 81.2 to 82.5 °C.

For `CCc1cc2c(s1)S(=O)(=O)Cc1cc(=O)n(-c3ccc(Cl)cc3)nc1-2`, which melting point is on record?
The melting point was 189 to 191 °C.

With `CCCc1c(C(=O)O)c(=O)cc(-c2ccccc2)n1C` as the molecule, how does the melting point read?
Its melting point is 150 °C.

With `CC(=O)Nc1ccc(-n2c(-c3ccccc3)cc3c2CCCC3)cc1C(=O)O` as the molecule, how does the melting point read?
The melting point was 192 to 194 °C.

With `O=C(NCc1c[nH]c(=S)n1[C@H]1CCc2c(F)cc(F)cc2C1)c1ccco1` as the molecule, how does the melting point read?
The melting point was 227 to 231 °C.

Which melting point does the source give for `CCC1=Nc2ccccc2CC(c2ccc(C)s2)N1C` (stereo unspecified) here?
Its melting point is 66 °C.

Which melting point does the source give for `CCOC(=O)c1cnc2c(cnn2-c2ccccc2)c1O` here?
The melting point was 149 to 150 °C.

Which melting point does the source give for `O=S(=O)(Nc1ccc2oncc2c1)c1cc(Cl)ccc1Cl` here?
Its melting point is 173 to 174 °C.

For `O=C(NO)OCC1c2ccccc2-c2ccccc21`, which melting point is on record?
Its melting point is 160 °C.

With `O=C(NC1CCN(C2CCCCC2)C1)c1cccc2ccccc12` (stereo unspecified) as the molecule, how does the melting point read?
The melting point was 119 to 120 °C.

For `O=C(NC1CCCCC1)c1c(O)c2cc(Cl)ccc2n(Cc2ccccc2)c1=O`, which melting point is on record?
Its melting point is 158 °C.

For `O=c1[nH]ccc2c1c(O)nc1cc(Cl)c(Cl)cc12`, which melting point is on record?
The melting point was greater than 350 °C.

With `Cc1nc(N2CCN(CCc3c[nH]c4ccccc34)C2=O)sc1C(=O)NCc1ccccc1` as the molecule, how does the melting point read?
Its melting point is 215 to 217 °C.

For `Cc1ccc(S(=O)(=O)N(c2ccc(C#N)cc2Cl)C(C)C)cc1`, which melting point is on record?
The melting point was 118 to 119 °C.

Which melting point does the source give for `Cc1ccc(C2=NC(C)(C(C)C)C(=O)N2)cc1` (stereo unspecified) here?
Its melting point is 151 to 154 °C.

For `O=C(O)[C@H](CC(=NO)c1ccc2oc3ccccc3c2c1)NC(=O)C(F)(F)F`, which melting point is on record?
The melting point was 128 to 130 °C.

Which melting point does the source give for `CCOC(=O)C(NC(=O)OCc1ccccc1)OCC` (stereo unspecified) here?
The melting point was 66 to 68 °C.

Which melting point does the source give for `CCOC(=O)c1[nH]c2cc(C(F)(F)F)ccc2c1N` here?
Its melting point is 204 to 210 °C.

With `CCCCCCCCNC(=O)/C=C\SC(=O)c1cc(Cl)cc(Cl)c1` as the molecule, how does the melting point read?
Its melting point is 99 to 102 °C.

Which melting point does the source give for `COc1cc2c(cc1OC)-c1nccc3cccc(c13)C2=O` here?
Its melting point is 250 °C.

For `Oc1cc(O)c2c(-c3cc(F)cc(F)c3)coc2c1`, which melting point is on record?
Its melting point is 149 to 151 °C.

With `COCC(=O)N(c1c(C)cccc1N)C(C)C(=O)OC` (stereo unspecified) as the molecule, how does the melting point read?
Its melting point is 86 to 88 °C.

For `Cc1cc(C(=O)N2Cc3cccn3Cc3ccccc32)ccc1-c1ccncc1`, which melting point is on record?
The melting point was 208 to 210 °C.

With `CC(C)Cc1c(C(=O)OC(C)(C)C)c(C(F)F)nc(C(F)(F)F)c1C(=O)OC(C)(C)C` as the molecule, how does the melting point read?
The melting point was 48 to 50 °C.

For `CCOC(=O)C(NS(=O)(=O)c1ccc(C)cc1)C1CCOC1` (stereo unspecified), which melting point is on record?
The melting point was 104 to 105 °C.

Which melting point does the source give for `Cc1ccc(C(=O)CBr)cc1S(N)(=O)=O` here?
The melting point was 146 to 148 °C.

Which melting point does the source give for `C#CCON=C(C)C1CN2CCC1CC2` (stereo unspecified) here?
The melting point was 56 to 58 °C.

For `NC(=O)c1cn(Cc2c(F)cccc2F)nn1`, which melting point is on record?
Its melting point is 237 to 240 °C.

Which melting point does the source give for `O=CN1CCN(c2nc(Cl)nc(Cl)n2)CC1` here?
The melting point was 163 to 165 °C.

Which melting point does the source give for `CN(C)C(=O)CNc1cc(-c2ccccc2)nc(-c2ccc(C(F)(F)F)cc2)n1` here?
Its melting point is 178 to 179 °C.

With `Cn1cc(S(=O)(=O)NC(C)(C)C)c(=O)n(C)c1=O` as the molecule, how does the melting point read?
The melting point was 143 to 144 °C.

For `CCc1cccc(CC)c1NC(=O)NCC1(c2ccccc2)CCCCC1`, which melting point is on record?
The melting point was 185 to 186 °C.

With `Cc1nc2c(CO)cccn2c(=O)c1CCN1CCC(c2noc3cc(F)ccc23)CC1` as the molecule, how does the melting point read?
The melting point was 186 °C.

With `O=C(CCC(=O)N(CCO)CCO)N(CCO)CCO` as the molecule, how does the melting point read?
Its melting point is 89 to 91 °C.

Which melting point does the source give for `C=CC(C)(C)OC(=O)c1c(C)nc2c(cnn2CCCCC)c1N` here?
Its melting point is 77.7 to 78.5 °C.

For `CCOC(=O)/C=C/c1ccc(OCC(C)(C)O)cc1Oc1ncc(C(F)(F)F)cc1Cl`, which melting point is on record?
Its melting point is 79 to 83 °C.

Which melting point does the source give for `C[Si](C)(C)C#CCCCn1ncc(C#N)c1N` here?
The melting point was 125 to 127 °C.

Which melting point does the source give for `BrCc1ccc(-c2onc3ccccc23)cc1` here?
The melting point was 146 to 147 °C.

With `OCC(CO)c1nc(NCc2ccccn2)c2c(-c3ccccc3)csc2n1` as the molecule, how does the melting point read?
Its melting point is 137 to 139 °C.

Which melting point does the source give for `COc1ccc(-n2nc(C(C)C)cc2-c2ccc(OCCNS(C)(=O)=O)cc2)cn1` here?
Its melting point is 96 to 97 °C.

Which melting point does the source give for `CC(Cc1ccc(OCC(N)=O)cc1)NCC(OCCO)c1ccc(O)cc1` (stereo unspecified) here?
The melting point was 145 to 160 °C.

For `CC1(C)COC(C)(C)N1C(=O)OCCN(Cc1ccccc1)Cc1ccccc1`, which melting point is on record?
Its melting point is 32 °C.

With `CCOC(Cc1ccc(OCCn2c(=O)sc3cc(C(=O)c4ccccc4)ccc32)cc1)C(=O)OC` (stereo unspecified) as the molecule, how does the melting point read?
The melting point was 118 to 119 °C.

With `O=CN(O)C(Cc1cccc(CC(=O)O)c1)CS(=O)(=O)c1ccc(Oc2ccc(OC(F)(F)F)cc2)cc1` (stereo unspecified) as the molecule, how does the melting point read?
Its melting point is 138 to 140 °C.

With `Cn1ncnc1-c1oc2cccc(CCc3ccc(F)cc3)c2c(=O)c1O` as the molecule, how does the melting point read?
Its melting point is 192 to 193 °C.

For `O=c1c2ccc(Cl)cc2oc2c(OCc3ccccc3)cccc12`, which melting point is on record?
The melting point was 154 °C.

For `N#Cc1ccc(C(=O)c2ccc(OC3OC(CO)C(O)C(O)C3O)cc2)cc1` (stereo unspecified), which melting point is on record?
The melting point was 122 °C.

With `COc1ccc2c(c1)CCN1C(=O)[C@H]3CCCN(S(C)(=O)=O)[C@H]3C[C@@H]21` as the molecule, how does the melting point read?
Its melting point is 138 to 140 °C.

With `CCC(/C=C(\OC)C(=O)OC)=C\c1cc2ccccc2[nH]1` as the molecule, how does the melting point read?
The melting point was 93 to 95 °C.

Which melting point does the source give for `CC(C)=CC(=O)On1cc(Cl)cn1` here?
The melting point was 71 °C.

With `CCC(Oc1ccccc1)c1nnc(N2C(=O)N(C)CC2O)s1` (stereo unspecified) as the molecule, how does the melting point read?
Its melting point is 137 to 138 °C.

For `C=CCN(C(=O)c1ccco1)c1c(C)cccc1C`, which melting point is on record?
The melting point was 68 to 69 °C.

With `NC(=O)N(O)CCOCc1ccco1` as the molecule, how does the melting point read?
Its melting point is 72 to 75 °C.

For `Cc1ccc(-c2ccccc2C(=O)Nc2ccc(C(=O)N3C[C@@H]4CCCN4C(=O)c4ccccc43)cc2)cc1`, which melting point is on record?
Its melting point is 230 to 232 °C.

With `CN(O)C(=O)c1ccccc1` as the molecule, how does the melting point read?
The melting point was less than 20 °C.

Which melting point does the source give for `Cc1c(C)c(C)c(C2C(=O)Oc3c2cc(C(C)(C)C)cc3C(C)(C)C)c(C)c1C` (stereo unspecified) here?
The melting point was 185 to 190 °C.

With `CCCCOc1nc(NC(C)=O)nc2ccc(Cl)nc12` as the molecule, how does the melting point read?
The melting point was 158 to 159 °C.

With `O=C(CCl)Nc1csc(NC(=O)CCl)n1` as the molecule, how does the melting point read?
Its melting point is 188 to 192 °C.

Which melting point does the source give for `COC(=O)/C=C/c1cccc(Br)c1` here?
The melting point was 53 to 55 °C.

With `O=C(NCc1ccc(Br)cc1)c1c(F)cccc1F` as the molecule, how does the melting point read?
Its melting point is 142 °C.

With `COc1cccc(C2NC(=O)N(C(C)C)c3cc(C)ccc32)c1` (stereo unspecified) as the molecule, how does the melting point read?
Its melting point is 167 to 169 °C.

For `O=C1CC(CCCl)c2ccccc2N1` (stereo unspecified), which melting point is on record?
The melting point was 112 to 113 °C.

For `FC(F)(F)Oc1ccc2nccc(N3CCN(C(=S)NCc4ccccc4)CC3)c2c1`, which melting point is on record?
Its melting point is 70 to 71 °C.

Which melting point does the source give for `O=C(O)Cc1cc(Br)c(-c2ccc(Cl)cc2)s1` here?
The melting point was 136 to 137 °C.

Which melting point does the source give for `COC(=O)c1ccc(-c2nc(C)no2)s1` here?
The melting point was 154 to 156 °C.

Which melting point does the source give for `CC1(C)OCC(CO)(CO)CO1` here?
Its melting point is 124 to 126 °C.

For `CC(C)Oc1cc(-n2c(=O)c3c(n(C)c2=O)CCCC3)c(F)cc1Cl`, which melting point is on record?
Its melting point is 143 to 145 °C.

With `COC(SC)C(=O)c1[nH]c2cc(Br)c(Cl)cc2c1-c1ccccc1` (stereo unspecified) as the molecule, how does the melting point read?
Its melting point is 145 to 147 °C.

Which melting point does the source give for `CCOC(=O)C1=C(C)NC(C#N)=C(C(=O)OCC)C1c1cc([N+](=O)[O-])ccc1Cl` (stereo unspecified) here?
The melting point was 204 to 206 °C.

With `CCCC1=C(C#N)C(c2ccccc2Cl)c2c(n[nH]c2-c2ccc(OC)cc2)N1` (stereo unspecified) as the molecule, how does the melting point read?
Its melting point is 284 °C.

Which melting point does the source give for `CCOC(=O)c1ccc(N(C(=O)OC(C)(C)C)N(C)C(C)=O)cc1` here?
The melting point was 82 °C.

With `Cc1ncc([N+](=O)[O-])n1CCN1C(=O)NC2(C1=O)C1CC3CC(C1)CC2C3` (stereo unspecified) as the molecule, how does the melting point read?
Its melting point is 276 to 280 °C.

For `c1ccc(CCN2CCc3[nH]c4ccc5scc(-c6ccccc6)c5c4c3C2)cc1`, which melting point is on record?
Its melting point is 220 to 221 °C.
